These results are taken from patent US20250205181A1 (CZAP RESEARCH AND DEVELOPMENT, LLC, priority 2021, published 2025).

Test [1] in a line: Self-reported erectogenic effect / blood flow when tumescent in subject (Examples 1 and 2). In kind it is in vivo, human. To be noted: in conjunction with the 25 mg dosing of the anandamide CD formulation. The procedure: The subject had been taking various amounts of sildenafil for many years at 10-25 mg increments.
The subject of Example 1 determined that the combined use of these formulations permitted controlled dosing with bolus and/extended release regimens.

Test [2] deals with CB2 receptor (Mus musculus, UniProt P47936). To be noted: literature value, Lin et al., J Med Chem 1998; cited from earlier work.

pKi: −log10 of the molar value. Some results are limits rather than exact numbers.

CB2 receptor, sequence (P47936 whole entry): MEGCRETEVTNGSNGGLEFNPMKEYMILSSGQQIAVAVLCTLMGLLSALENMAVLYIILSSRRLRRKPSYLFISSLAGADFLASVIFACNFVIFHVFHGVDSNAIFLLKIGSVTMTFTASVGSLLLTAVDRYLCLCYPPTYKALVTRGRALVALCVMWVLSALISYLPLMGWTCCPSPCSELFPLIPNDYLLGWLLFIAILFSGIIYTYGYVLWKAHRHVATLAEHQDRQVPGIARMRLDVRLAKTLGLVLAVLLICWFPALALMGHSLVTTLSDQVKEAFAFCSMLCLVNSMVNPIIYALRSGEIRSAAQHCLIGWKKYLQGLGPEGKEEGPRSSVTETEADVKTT

For the molecule `CCCc1nn(C)c2c(=O)[nH]c(-c3cc(S(=O)(=O)N4CCN(C)CC4)ccc3OCC)nc12` [sildenafil], in test [1], the “effect of 10 mg sildenafil in conjunction with anandamide CD versus 25 mg sildenafil before anandamide CD supplementation” value was “more noticeable results”. Turning to `CCCCC/C=C\C/C=C\C/C=C\C/C=C\CCCC(=O)NCCO` [anandamide, (5Z,8Z,11Z,14Z)-N-(2-hydroxyethyl)icosa-5,8,11,14-tetraenamide], in test [2], the pKi is below 6.00.

The pKi is the Ki on a negative log10 scale, so that one unit is a factor of ten.
